Test results from patent publication US11780839B2, “Compounds for treating Huntington's disease” (PTC THERAPEUTICS, INC., priority 2018, dated 2023).

Test system: Endogenous Huntingtin Protein
Assay: Endogenous Huntingtin Protein Assay (ELISA-based Meso Scale Discovery electrochemiluminescence)
Type: cell-based
Settings: MSD electrochemiluminescence, Table 1
Description: Compounds of Formula (I) or Formula (II) were tested using the Meso Scale Discovery (MSD) Assay provided in International Application No. PCT/US2016/066042, filed on Dec. 11, 2016 and claiming priority to U.S. Provisional Application 62/265,652 filed on Dec. 10, 2015, the entire contents of which are incorporated herein by reference.
The Endogenous Huntingtin Protein assay used in Example 1 was developed using the ELISA-based MSD electrochemiluminescence assay platform.
Endogenous Huntingtin Protein Assay
Meso Scale Discovery (MSD) 96-well or 384-well plates were coated overnight at 4° C. with MW1 (expanded polyglutamine) or MAB2166 monoclonal antibody (for capture) at a concentration of 1 μg/mL in PBS (30 μL per well). Plates were then washed three times with 300 μL wash buffer (0.05% Tween-20 in PBS) and blocked (100 μL blocking buffer; 5% BSA in PBS) for 4-5 hours at room temperature with rotational shaking and then washed three times with wash buffer.
Samples (25 μL) were transferred to the antibody-coated MSD plate and incubated overnight at 4° C. After removal of the lysates, the plate was washed three times with wash buffer, and 25 μL of #5656S (Cell signaling; rabbit monoclonal) secondary antibody (diluted to 0.25 μg/mL in 0.05% Tween-20 in blocking buffer) was added to each well and incubated with shaking for 1 Hour at room temperature. Following incubation with the secondary antibody, the wells were rinsed with wash buffer after which 25 μL of goat anti-rabbit SULFO TAG secondary detection antibody (required aspect of the MSD system) (diluted to 0.25 μg/mL in 0.05% Tween-20 in blocking buffer) was added to each well and incubated with shaking for 1 hour at room temperature. After rinsing three times with wash buffer, 150 μL of read buffer T with surfactant (MSD) were added to each empty well, and the plate was imaged on a SI 6000 imager (MSD) according to manufacturers' instructions provided for 96- or 384-well plates.

SMILES | IC50 [nM]
CN(c1ncc(-c2ccc(-c3ccn(C)n3)cc2O)nn1)C1CC(C)(C)NC(C)(C)C1 [Cpd 76, 5-(1-methyl-1H-pyrazol-3-yl)-2-{3-[methyl(2,2,6,6-tetramethylpiperidin-4-yl)amino]-1,2,4-triazin-6-yl}phenol] | ≤ 100
Cc1cn(-c2ccc(-c3cnc(N4CCC(NC(C)C)C4)nn3)c(O)c2)cn1 (centres unmarked) [Cpd 326, 5-(4-methyl-1H-imidazol-1-yl)-2-(3-{3-[(propan-2-yl)amino]pyrrolidin-1-yl}-1,2,4-triazin-6-yl)phenol] | ≤ 100
CN(c1cnc(-c2ccc(-c3cccnc3)cc2O)nn1)C1CC(C)(C)NC(C)(C)C1 [Cpd 384, 2-{6-[methyl(2,2,6,6-tetramethylpiperidin-4-yl)amino]-1,2,4-triazin-3-yl}-5-(pyridin-3-yl)phenol] | ≤ 100
Cn1cnc(-c2ccc(-c3cnc(N[C@H]4CC(C)(C)NC(C)(C)[C@H]4F)nn3)c(O)c2)cc1=O [Cpd 246, 6-[4-(3-{[(3S,4S)-3-fluoro-2,2,6,6-tetramethylpiperidin-4-yl]amino}-1,2,4-triazin-6-yl)-3-hydroxyphenyl]-3-methylpyrimidin-4(3H)-one] | ≤ 100
Oc1cc(-c2cn[nH]c2)ccc1-c1cnc(N2CCC(NC3CC3)C2)nn1 (centres unmarked) [Cpd 137, 2-{3-[3-(cyclopropylamino)pyrrolidin-1-yl]-1,2,4-triazin-6-yl}-5-(1H-pyrazol-4-yl)phenol] | ≤ 100
Oc1cc(-c2cn[nH]c2)ccc1-c1cnc(N2CCC(CNC3CCOC3)C2)nn1 (centres unmarked) [Cpd 395, 2-[3-(3-{[(oxolan-3-yl)amino]methyl}pyrrolidin-1-yl)-1,2,4-triazin-6-yl]-5-(1H-pyrazol-4-yl)phenol] | ≤ 100
CC(C)NC1CCN(c2ncc(-c3ccc(-c4nnn(C)n4)cc3O)nn2)C1 (centres unmarked) [Cpd 259, 5-(2-methyl-2H-tetrazol-5-yl)-2-(3-{3-[(propan-2-yl)amino]pyrrolidin-1-yl}-1,2,4-triazin-6-yl)phenol] | 100 to 500
CNC1CCN(c2ncc(-c3ccc(-c4cnc5c(cnn5C)c4)cc3O)nn2)C1 (centres unmarked) [Cpd 271, 2-{3-[3-(methylamino)pyrrolidin-1-yl]-1,2,4-triazin-6-yl}-5-(1-methyl-1H-pyrazolo[3,4-b]pyridin-5-yl)phenol] | 100 to 500
CC1(C)CC(Nc2cnc(-c3ccc(-c4cn[nH]c4)cc3O)nn2)C(F)C(C)(C)N1 (centres unmarked) [Cpd 423, 2-{6-[(3-fluoro-2,2,6,6-tetramethylpiperidin-4-yl)amino]-1,2,4-triazin-3-yl}-5-(1H-pyrazol-4-yl)phenol] | ≤ 100
CNC1CCN(c2ncc(-c3ccc(-c4ncccn4)cc3O)nn2)C1 (centres unmarked) [Cpd 270, 2-{3-[3-(methylamino)pyrrolidin-1-yl]-1,2,4-triazin-6-yl}-5-(pyrimidin-2-yl)phenol] | 1000 to 3000
CN(C)[C@H]1CC[C@@H]2CN(c3ncc(-c4ccc(-c5cn[nH]c5)cc4O)nn3)C[C@@H]21 [Cpd 167, 2-{3-[(3aR,4S,6aS)-4-(dimethylamino)hexahydrocyclopenta[c]pyrrol-2(1H)-yl]-1,2,4-triazin-6-yl}-5-(1H-pyrazol-4-yl)phenol] | ≤ 100
Cn1cnc(-c2ccc(-c3cnc(N4CCC(NC(C)(C)C)C4)nn3)c(O)c2)cc1=O (centres unmarked) [Cpd 216, 6-(4-{3-[3-(tert-butylamino)pyrrolidin-1-yl]-1,2,4-triazin-6-yl}-3-hydroxyphenyl)-3-methylpyrimidin-4(3H)-one] | 100 to 500
CN(c1ncc(-c2ccc(-c3ccc4[nH]cnc4c3)cc2O)nn1)C1CC(C)(C)NC(C)(C)C1 [Cpd 131, 5-(1H-benzimidazol-5-yl)-2-{3-[methyl(2,2,6,6-tetramethylpiperidin-4-yl)amino]-1,2,4-triazin-6-yl}phenol] | ≤ 100
CN(c1ncc(-c2ccc(-c3cnn(C)n3)cc2O)nn1)C1CC(C)(C)NC(C)(C)C1 [Cpd 23, 2-{3-[methyl(2,2,6,6-tetramethylpiperidin-4-yl)amino]-1,2,4-triazin-6-yl}-5-(2-methyl-2H-1,2,3-triazol-4-yl)phenol] | ≤ 100
CN1[C@@H]2CCC[C@H]1CC(Nc1ncc(-c3ccc(-c4cn[nH]c4)cc3O)nn1)C2 (stereo partly drawn) [Cpd 77, 2-{3-{[(1R,3s,5S)-9-methyl-9-azabicyclo[3.3.1]nonan-3-yl]amino}-1,2,4-triazin-6-yl)-5-(1H-pyrazol-4-yl)phenol] | ≤ 100
CC(C)NC1CCN(c2ncc(-c3ccc(-n4ccnc4)cc3O)nn2)C1 (centres unmarked) [Cpd 331] | 100 to 500

SMILES | IC50 [nM]
CN(c1ncc(-c2ccc(-n3ccnc3)cc2O)nn1)C1CC(C)(C)NC(C)(C)C1 [Cpd 89, 5-(1H-imidazol-1-yl)-2-{3-[methyl(2,2,6,6-tetramethylpiperidin-4-yl)amino]-1,2,4-triazin-6-yl}phenol] | ≤ 100
CN(c1ncc(-c2ccc(-c3ccc4ncn(C)c4n3)cc2O)nn1)C1CC(C)(C)NC(C)(C)C1 [Cpd 163, 5-(3-methyl-3H-imidazo[4,5-b]pyridin-5-yl)-2-{3-[methyl(2,2,6,6-tetramethylpiperidin-4-yl)amino]-1,2,4-triazin-6-yl}phenol] | 1000 to 3000
Cc1cn(-c2ccc(-c3cnc(N[C@H]4CC(C)(C)NC(C)(C)[C@H]4F)nn3)c(O)c2)cn1 [Cpd 239, 2-{3-{[(3S,4S)-3-fluoro-2,2,6,6-tetramethylpiperidin-4-yl]amino}-1,2,4-triazin-6-yl)-5-(4-methyl-1H-imidazol-1-yl)phenol] | ≤ 100
Cc1cnc(-c2ccc(-c3cnc(N(C)C4CC(C)(C)NC(C)(C)C4)nn3)c(O)c2)o1 [Cpd 1, 5-(5-methyl-1,3-oxazol-2-yl)-2-{3-[methyl(2,2,6,6-tetramethylpiperidin-4-yl)amino]-1,2,4-triazin-6-yl}phenol] | > 500
CN(c1ncc(-c2ccc(-c3cc4cn[nH]c4cn3)cc2O)nn1)C1CC(C)(C)NC(C)(C)C1 [Cpd 184, 2-{3-[methyl(2,2,6,6-tetramethylpiperidin-4-yl)amino]-1,2,4-triazin-6-yl}-5-(1H-pyrazolo[3,4-c]pyridin-5-yl)phenol] | ≤ 100
CC(C)(C)NC1CCN(c2ncc(-c3ccc(-c4c[nH]nc4C#N)cc3O)nn2)C1 (stereo not drawn) [Cpd 366, 4-(4-{3-[3-(tert-butylamino)pyrrolidin-l-yl]-1,2,4-triazin-6-yl]-3-hydroxyphenyl)-1H-pyrazole-3-carbonitrile] | ≤ 100
CC(C)NC1CCN(c2ncc(-c3ccc(-c4cn[nH]c4F)cc3O)nn2)C1 (centres unmarked) [Cpd 235, 5-(5-fluoro-1H-pyrazol-4-yl)-2-(3-{3-[(propan-2-yl)amino]pyrrolidin-1-yl}-1,2,4-triazin-6-yl)phenol] | ≤ 100
CC1CN(c2ncc(-c3ccc(-c4cn[nH]c4)cc3O)nn2)CC(C)N1 (centres unmarked) [Cpd 262, 2-[3-(3,5-dimethylpiperazin-1-yl)-1,2,4-triazin-6-yl]-5-(1H-pyrazol-4-yl)phenol] | ≤ 100
CC(C)(C)NC1CN(c2ncc(-c3ccc(-c4cn[nH]c4)cc3O)nn2)CC1F (centres unmarked) [Cpd 278, 2-{3-[3-(tert-butylamino)-4-fluoropyrrolidin-1-yl]-1,2,4-triazin-6-yl}-5-(1H-pyrazol-4-yl)phenol] | ≤ 100
CN(c1ncc(-c2ccc(-c3cn[nH]c3)cc2O)nn1)C1CC(C)(C)NC(C)(C)C1F (centres unmarked) [Cpd 67, 2-{3-[(3-fluoro-2,2,6,6-tetramethylpiperidin-4-yl)(methyl)amino]-1,2,4-triazin-6-yl}-5-(1H-pyrazol-4-yl)phenol] | 100 to 500
CCNC1CCN(c2ncc(-c3ccc(-c4cn[nH]c4)cc3O)nn2)C1 (centres unmarked) [Cpd 317, 2-{3-[3-(ethylamino)pyrrolidin-1-yl]-1,2,4-triazin-6-yl}-5-(1H-pyrazol-4-yl)phenol] | ≤ 100
COc1cnn(-c2ccc(-c3cnc(N(C)C4CC(C)(C)NC(C)(C)C4)nn3)c(O)c2)c1 [Cpd 55, 5-(4-methoxy-1H-pyrazol-1-yl)-2-{3-[methyl(2,2,6,6-tetramethylpiperidin-4-yl)amino]-1,2,4-triazin-6-yl}phenol] | ≤ 100
CN1CCC2(CC1)CN(c1ncc(-c3ccc(-c4c[nH]nn4)cc3O)nn1)C2 [Cpd 245, 2-[3-(7-methyl-2,7-diazaspiro[3.5]nonan-2-yl)-1,2,4-triazin-6-yl]-5-(1H-1,2,3-triazol-4-yl)phenol] | ≤ 100
CN1CC[C@@H]2CN(c3ncc(-c4ccc(-c5cn[nH]c5)cc4O)nn3)C[C@@H]21 [Cpd 117, 2-{3-[(3aR,6aR)-1-methylhexahydropyrrolo[3,4-b]pyrrol-5(1H)-yl]-1,2,4-triazin-6-yl}-5-(1H-pyrazol-4-yl)phenol] | 100 to 500
CC(=O)c1cnn(-c2ccc(-c3cnc(N(C)C4CC(C)(C)NC(C)(C)C4)nn3)c(O)c2)c1 [Cpd 68, 1-[1-(3-hydroxy-4-{3-[methyl(2,2,6,6-tetramethylpiperidin-4-yl)amino]-1,2,4-triazin-6-yl}phenyl)-1H-pyrazol-4-yl]ethan-l-one] | ≤ 100
Cc1n[nH]cc1-c1ccc(-c2cnc(N3CCC(NC(C)(C)C)C3)nn2)c(O)c1 (centres unmarked) [Cpd 375, 2-{3-[3-(tert-butylamino)pyrrolidin-1-yl]-1,2,4-triazin-6-yl}-5-(3-methyl-1H-pyrazol-4-yl)phenol] | ≤ 100
